Experimental data as given in article PMC10267561, “PI3P-dependent regulation of cell size and autophagy by phosphatidylinositol 5-phosphate 4-kinase” (Life Science Alliance, 2023).

Molecular target: T1, Mtm (Mtm^WT::GFP) (Drosophila melanogaster, UniProt Q9VMI9)
T1 construct: C-terminal GFP tag, overexpressed (da-Gal4) in third instar larvae, whole larval lysate; ~100 kD
T1 sequence (Q9VMI9 1-619): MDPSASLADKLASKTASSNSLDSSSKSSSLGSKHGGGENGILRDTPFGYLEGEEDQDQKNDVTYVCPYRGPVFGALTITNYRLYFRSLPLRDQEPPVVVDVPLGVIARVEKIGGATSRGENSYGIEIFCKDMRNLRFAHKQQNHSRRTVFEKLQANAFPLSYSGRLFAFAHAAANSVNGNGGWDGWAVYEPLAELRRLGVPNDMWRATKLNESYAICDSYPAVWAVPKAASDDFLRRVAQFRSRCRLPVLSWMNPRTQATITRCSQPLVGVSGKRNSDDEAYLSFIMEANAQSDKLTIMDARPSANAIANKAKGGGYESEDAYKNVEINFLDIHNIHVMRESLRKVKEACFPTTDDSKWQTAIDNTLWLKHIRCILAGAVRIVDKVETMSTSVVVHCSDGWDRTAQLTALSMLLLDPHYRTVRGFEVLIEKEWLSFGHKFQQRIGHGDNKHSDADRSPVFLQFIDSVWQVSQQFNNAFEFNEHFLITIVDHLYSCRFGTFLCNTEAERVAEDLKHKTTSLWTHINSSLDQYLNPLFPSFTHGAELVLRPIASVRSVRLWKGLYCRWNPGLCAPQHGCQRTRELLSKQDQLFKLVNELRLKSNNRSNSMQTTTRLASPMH
Experiment: LC-MS/MS in vitro 3-phosphatase assay, overexpressing larval lysate vs control lysate
Format: biochemical
Settings: pH 7.4 lipid suspension, phosphatidylserine, 15 min, 37 °C; 10 ug lysate protein

CCCCC/C=C\C/C=C\C/C=C\C/C=C\CCCC(=O)O[C@H](COC(=O)CCCCCCCCCCCCCCCC)COP(=O)(O)O[C@@H]1[C@H](O)[C@H](OP(=O)(O)O)[C@@H](O)[C@H](O)[C@H]1O [17:0 20:4 PI3P]
3-phosphatase activity, overexpressing vs control lysate: lysates with Mtm overexpression showed significantly higher PI3P 3-phosphatase activity compared with control lysates
